Values of other authors in patent publication US20220175673A1, “SURGICAL DEVICE” (Saint Anthony Biomedical, LLC, priority 2017, published 2022).

Test system: Bacteroides, Propionibacterium, Clostridium deficile, Selenomonas
Conditions: some strains

[H]/N=C(\N/C(=N/[H])NCCCCCCNC(=N)NC(=N)Nc1ccc(Cl)cc1)Nc1ccc(Cl)cc1 [Chlorhexidine, chlorhexidine]
activity: active against some strains
